Experimental data reported in article PMC7002685, “Inhibition of vascular calcification by inositol phosphates derivatized with ethylene glycol oligomers” (Nature Communications, 2020).
“And” between values parts separate entries of the source, which are not always exact repeats. Equal values may be shown once. Read-outs that look alike come from different tables or passages of the source.

Tests used:
[1] = target: T1, Serotonin (5-Hydroxytryptamine) 5-HT3 (Homo sapiens, UniProt P46098); assay: Off-target 271910; format: binding
T1 construct: purchased Eurofins Panlabs Discovery Services Taiwan, Ltd
Description: (§1) The potential off-target activity of 10 µM (OEG2)2-IP4 was assessed against a panel of 87 enzymes, receptors, or ion channels that are used in standard safety pharmacology screens.
(§2) 3.2. Off-target screening assay
(§3) The experiments were conducted by a contract research organization (Eurofins Panlabs Discovery
(§4) Services Taiwan, Ltd.) and details on the respective assays can be retrieved via the catalog number
(§5) provided in Supplementary Table 11 from the company’s webpage
(§6) (https://www.eurofinsdiscoveryservices.com/). […]

[2] = Plasma calcium after s.c. administration in healthy rats; format: in vivo, rat; conditions: 50 mg/kg s.c., acute or sub-chronic (7 days), at tmax of 30 min
[3] = target: T2, Cholinesterase, Acetyl, ACES (Homo sapiens, UniProt P22303); assay: Off-target 104010; format: biochemical
T2 construct: purchased Eurofins Panlabs Discovery Services Taiwan, Ltd
Description: as §1, §2, §3, §4, §5, §6

[4] = system: Nicotinic Acetylcholine; assay: Off-target 258590; format: binding, Human; conditions: 10 µM
Description: as §1, §2
(§7) The experiments were conducted by a contract research organization (Eurofins Panlabs Discovery Services Taiwan, Ltd.) and details on the respective assays can be retrieved via the catalog number provided in Supplementary Table 11 from the company’s webpage
as §6
(§8) At sacrifice the left tibia of animals of the rat model with dietary adenine/high-phosphate-induced uremia and VC was collected, fixed with 70% v/v EtOH and embedded in methyl methacrylate. The trabecular bone compartment is known to be the most metabolic active i.e. actively re-structured bone compartment in CKD. Therefore, histomorphometric and micro-computed tomography (µCT) analysis of bone was performed on the trabecular compartment. Tibial sections were Goldner-stained for histomorphometric analysis of the proximal metaphysis using the AxioVision Release 4.5 software, as […]
(§9) described previously5. […]

[5] = target: Glutamate, NMDA, Glycine (Rattus norvegicus, UniProt P35439); assay: Off-target 232910; format: binding
Description: as §1, §2, §3, §4, §5, §6

[6] = system: Glutamate, Kainate; assay: Off-target 232710; format: binding, Rat; conditions: 10 µM
Description: as §1, §2, §3, §4, §5, §6

[7] = target: T3, Muscarinic M3 (Homo sapiens, UniProt P20309); assay: Off-target 252810; format: binding
T3 construct: purchased Eurofins Panlabs Discovery Services Taiwan, Ltd
Description: as §1, §2, §7, §6, §8, §9

[8] = system: Sodium Channel, Site 2; assay: Off-target 279510; format: binding, Rat; conditions: 10 µM
Description: as §1, §2, §3, §4, §5, §6

[9] = target: T4, (Rattus norvegicus, UniProt P43140); assay: Off-target 203100; format: binding
T4 construct: purchased Eurofins Panlabs Discovery Services Taiwan, Ltd
Description: as §1, §2, §3, §4, §5, §6

[10] = system: Calcium Channel L-Type, Benzothiazepine; assay: Off-target 214510; format: binding, Rat; conditions: 10 µM
Description: as §1, §2, §7, §6, §8, §9

[11] = target: T5, Calcium Channel N-Type (Rattus norvegicus, UniProt Q02294); assay: Off-target 216000; format: binding
T5 construct: purchased Eurofins Panlabs Discovery Services Taiwan, Ltd
Description: as §1, §2, §7, §6, §8, §9

[12] = target: T6, Serotonin (5-Hydroxytryptamine) 5-HT2C (Homo sapiens, UniProt P28335); assay: Off-target 271800; format: binding
T6 construct: purchased Eurofins Panlabs Discovery Services Taiwan, Ltd
Description: as §1, §2, §7, §6, §8, §9

[13] = target: T7, Leukotriene, Cysteinyl CysLT1 (Homo sapiens, UniProt Q9Y271); assay: Off-target 250460; format: binding
T7 construct: purchased Eurofins Panlabs Discovery Services Taiwan, Ltd
Description: as §1, §2, §3, §4, §5, §6

[14] = target: T8, (Homo sapiens, UniProt P25100); assay: Off-target 203400; format: binding
T8 construct: purchased Eurofins Panlabs Discovery Services Taiwan, Ltd
Description: as §1, §2, §7, §6, §8, §9

[15] = target: T9, Protein Tyrosine Kinase, Insulin Receptor (Homo sapiens, UniProt P06213); assay: Off-target 174990; format: biochemical
T9 construct: purchased Eurofins Panlabs Discovery Services Taiwan, Ltd
Description: as §1, §2, §7, §6, §8, §9

[16] = system: bone; assay: Tibial bone histomorphometry, adenine model; format: in vivo, male Wistar rats
Description: At sacrifice the left tibia of animals of the rat model with dietary adenine/high-phosphate-induced uremia and VC was collected, fixed with 70% v/v EtOH and embedded in methyl methacrylate. The trabecular bone compartment is known to be the most metabolic active i.e. actively re-structured bone compartment in CKD. Therefore, histomorphometric and micro-computed tomography (µCT) analysis of bone was performed on the trabecular compartment. Tibial sections were Goldner-stained for histomorphometric analysis of the proximal metaphysis using the AxioVision Release 4.5 software, as described previously5. The total bone area (as percentage of total tissue area), osteoid area (as percentage of total bone area), and mineralized bone area (as percentage of total tissue area) were calculated from the primary measurements. Images of osteoclast and osteoblast were taken (Leica

[17] = Plasma calcium after s.c. administration in healthy rats; format: in vivo, rat; conditions: individual rats
Description: One potential side effect of inositol phosphate-based drugs is toxicity due to chelation of ionized serum calcium. […] At 100 µM (OEG2)2-IP4, 96 ± 2% of control serum-ionized calcium was measured.
To study PK in healthy animals, male Sprague-Dawley rats (Harlan, Correzzana, Italy) were housed up to three per cage with free access to water and standard chow (pellets 12 mm, global diet 2018 certificate, Mucedola, Srl, Settimo Milanese, Italy), and submitted to a 12-h light/dark cycle. Animals were administered i.v. 10 mg/kg of (OEG2)2-IP4 in saline solution i.v. (30 s bolus, 5 mL/kg) and s.c. (5 mL/kg), respectively, in three animals per route and treatment. […] Plasma calcium concentration was determined in pre-dose samples and in t = 30 min samples of both acute and chronic treatments using the calcium colorimetric assay. Blood samples of 100 µL were drawn at several time points from the caudal vein, centrifuged at (3000 × g, 4 °C, 10 min) and stored at −80 °C until analysis by liquid chromatography–tandem mass spectrometry (LC-MS/MS).

[18] = system: Transporter, Adenosine; assay: Off-target 202000; format: binding, Guinea pig; conditions: 10 µM
Description: as §1, §2, §3, §4, §5, §6

[19] = target: T10, Muscarinic M1 (Homo sapiens, UniProt P11229); assay: Off-target 252610; format: binding
T10 construct: purchased Eurofins Panlabs Discovery Services Taiwan, Ltd
Description: as §1, §2, §7, §6, §8, §9

[20] = target: T11, Chemokine CCR1 (Homo sapiens, UniProt P32246); assay: Off-target 217510; format: binding
T11 construct: purchased Eurofins Panlabs Discovery Services Taiwan, Ltd
Description: as §1, §2, §3, §4, §5, §6

[21] = PK s.c. in rats with vitamin D and warfarin-induced VC; format: in vivo; conditions: Sprague-Dawley, rat, plasma, sc, 50 mg/kg, 50 mg/kg s.c.
[22] = target: T12, Cannabinoid CB1 (Homo sapiens, UniProt P21554); assay: Off-target 217030; format: binding
T12 construct: purchased Eurofins Panlabs Discovery Services Taiwan, Ltd
Description: as §1, §2, §7, §6, §8, §9

[23] = design: method as in PMID 30280390; conditions: after a 4-h i.v. infusion, cited from earlier work

T6 sequence (P28335 33-458): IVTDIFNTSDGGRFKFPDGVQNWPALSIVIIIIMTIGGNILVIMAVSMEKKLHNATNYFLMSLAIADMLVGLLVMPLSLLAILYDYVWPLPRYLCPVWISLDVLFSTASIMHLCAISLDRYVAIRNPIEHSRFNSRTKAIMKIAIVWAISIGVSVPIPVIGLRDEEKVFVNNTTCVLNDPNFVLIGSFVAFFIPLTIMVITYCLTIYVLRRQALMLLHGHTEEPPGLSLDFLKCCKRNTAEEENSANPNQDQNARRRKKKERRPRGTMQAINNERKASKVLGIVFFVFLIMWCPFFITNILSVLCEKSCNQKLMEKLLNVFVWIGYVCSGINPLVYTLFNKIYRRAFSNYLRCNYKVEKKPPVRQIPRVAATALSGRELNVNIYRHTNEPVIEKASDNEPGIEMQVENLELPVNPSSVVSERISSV
T12 sequence (P21554 whole entry): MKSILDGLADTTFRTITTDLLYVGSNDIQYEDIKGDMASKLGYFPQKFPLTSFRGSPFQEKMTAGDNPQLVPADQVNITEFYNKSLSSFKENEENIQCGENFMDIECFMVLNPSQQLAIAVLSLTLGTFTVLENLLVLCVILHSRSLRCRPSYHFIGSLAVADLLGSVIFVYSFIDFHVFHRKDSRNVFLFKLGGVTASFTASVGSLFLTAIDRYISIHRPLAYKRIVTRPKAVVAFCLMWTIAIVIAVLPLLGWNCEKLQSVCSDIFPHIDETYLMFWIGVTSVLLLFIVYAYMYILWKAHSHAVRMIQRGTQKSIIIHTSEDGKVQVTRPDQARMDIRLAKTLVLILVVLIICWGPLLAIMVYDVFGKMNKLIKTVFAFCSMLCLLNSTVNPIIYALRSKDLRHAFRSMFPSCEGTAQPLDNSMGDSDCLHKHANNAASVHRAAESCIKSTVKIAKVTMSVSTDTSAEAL
T9 sequence (P06213 28-1382): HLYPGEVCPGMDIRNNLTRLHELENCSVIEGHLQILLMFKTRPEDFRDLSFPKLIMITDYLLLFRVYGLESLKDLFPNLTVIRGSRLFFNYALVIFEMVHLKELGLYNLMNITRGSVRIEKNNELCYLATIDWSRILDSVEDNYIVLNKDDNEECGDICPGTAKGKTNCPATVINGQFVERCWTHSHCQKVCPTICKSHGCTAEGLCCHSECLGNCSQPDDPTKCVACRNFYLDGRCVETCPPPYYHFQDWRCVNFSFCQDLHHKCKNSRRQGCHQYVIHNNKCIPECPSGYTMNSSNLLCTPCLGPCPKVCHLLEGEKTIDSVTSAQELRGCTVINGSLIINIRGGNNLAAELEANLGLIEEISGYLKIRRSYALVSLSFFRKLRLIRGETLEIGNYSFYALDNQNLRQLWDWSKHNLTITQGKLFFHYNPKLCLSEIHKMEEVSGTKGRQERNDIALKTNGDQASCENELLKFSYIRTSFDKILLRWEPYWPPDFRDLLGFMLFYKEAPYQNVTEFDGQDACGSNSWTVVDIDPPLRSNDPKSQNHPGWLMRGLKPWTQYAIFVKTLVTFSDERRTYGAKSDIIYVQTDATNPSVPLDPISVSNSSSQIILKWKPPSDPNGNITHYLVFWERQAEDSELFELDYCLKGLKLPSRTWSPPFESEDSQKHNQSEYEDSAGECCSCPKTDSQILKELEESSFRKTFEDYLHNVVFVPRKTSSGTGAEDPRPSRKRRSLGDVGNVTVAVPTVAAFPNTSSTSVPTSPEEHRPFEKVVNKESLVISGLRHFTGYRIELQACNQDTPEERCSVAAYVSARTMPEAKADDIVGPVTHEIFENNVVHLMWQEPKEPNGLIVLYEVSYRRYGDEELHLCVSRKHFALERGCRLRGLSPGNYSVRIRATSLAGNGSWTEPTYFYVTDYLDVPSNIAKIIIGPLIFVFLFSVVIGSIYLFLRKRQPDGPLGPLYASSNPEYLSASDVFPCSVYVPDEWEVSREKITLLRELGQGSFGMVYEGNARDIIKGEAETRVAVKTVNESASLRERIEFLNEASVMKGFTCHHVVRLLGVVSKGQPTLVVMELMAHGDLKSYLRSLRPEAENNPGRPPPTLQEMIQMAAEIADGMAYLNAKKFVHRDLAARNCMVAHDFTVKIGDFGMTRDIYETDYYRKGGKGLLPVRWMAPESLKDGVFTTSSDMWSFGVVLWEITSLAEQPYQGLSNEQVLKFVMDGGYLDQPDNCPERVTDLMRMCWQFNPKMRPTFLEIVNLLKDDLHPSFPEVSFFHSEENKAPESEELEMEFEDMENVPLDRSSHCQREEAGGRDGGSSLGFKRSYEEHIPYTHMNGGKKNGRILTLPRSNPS
T1 sequence (P46098 24-478): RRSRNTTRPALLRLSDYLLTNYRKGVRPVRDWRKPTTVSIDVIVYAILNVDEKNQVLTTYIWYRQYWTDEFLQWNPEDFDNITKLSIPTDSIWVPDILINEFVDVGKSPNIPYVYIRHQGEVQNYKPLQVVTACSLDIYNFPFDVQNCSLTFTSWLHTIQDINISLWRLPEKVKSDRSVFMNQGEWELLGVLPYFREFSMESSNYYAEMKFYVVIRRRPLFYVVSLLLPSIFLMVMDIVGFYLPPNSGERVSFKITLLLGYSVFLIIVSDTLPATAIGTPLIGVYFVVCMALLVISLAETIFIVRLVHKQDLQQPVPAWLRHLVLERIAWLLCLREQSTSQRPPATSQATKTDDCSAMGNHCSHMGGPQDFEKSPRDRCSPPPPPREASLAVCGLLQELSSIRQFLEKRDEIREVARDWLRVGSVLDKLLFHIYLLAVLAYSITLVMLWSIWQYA
T3 sequence (P20309 whole entry): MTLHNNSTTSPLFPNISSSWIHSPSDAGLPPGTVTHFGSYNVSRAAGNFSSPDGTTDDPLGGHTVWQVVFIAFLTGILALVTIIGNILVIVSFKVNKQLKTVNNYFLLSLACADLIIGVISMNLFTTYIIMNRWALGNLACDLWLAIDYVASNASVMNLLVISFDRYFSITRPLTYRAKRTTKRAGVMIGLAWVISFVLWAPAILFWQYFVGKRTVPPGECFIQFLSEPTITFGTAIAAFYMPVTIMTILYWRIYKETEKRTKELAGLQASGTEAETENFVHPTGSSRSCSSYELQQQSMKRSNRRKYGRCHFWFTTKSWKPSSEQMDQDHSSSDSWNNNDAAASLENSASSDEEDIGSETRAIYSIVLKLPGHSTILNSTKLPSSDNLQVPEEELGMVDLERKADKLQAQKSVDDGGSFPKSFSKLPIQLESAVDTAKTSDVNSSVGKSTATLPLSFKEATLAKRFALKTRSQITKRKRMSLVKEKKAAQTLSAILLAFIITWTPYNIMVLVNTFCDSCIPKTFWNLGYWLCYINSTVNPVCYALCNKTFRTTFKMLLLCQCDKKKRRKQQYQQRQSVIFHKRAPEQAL
T11 sequence (P32246 whole entry): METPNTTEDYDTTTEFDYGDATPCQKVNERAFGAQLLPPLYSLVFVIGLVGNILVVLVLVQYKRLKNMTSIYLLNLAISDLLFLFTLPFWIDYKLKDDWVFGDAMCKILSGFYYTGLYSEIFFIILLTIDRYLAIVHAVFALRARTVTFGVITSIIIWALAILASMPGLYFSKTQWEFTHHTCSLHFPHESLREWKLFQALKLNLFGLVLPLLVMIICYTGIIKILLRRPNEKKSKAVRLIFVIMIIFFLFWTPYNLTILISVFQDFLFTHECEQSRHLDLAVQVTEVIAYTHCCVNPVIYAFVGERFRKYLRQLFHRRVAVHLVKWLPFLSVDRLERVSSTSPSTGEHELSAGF
T2 sequence (P22303 32-614): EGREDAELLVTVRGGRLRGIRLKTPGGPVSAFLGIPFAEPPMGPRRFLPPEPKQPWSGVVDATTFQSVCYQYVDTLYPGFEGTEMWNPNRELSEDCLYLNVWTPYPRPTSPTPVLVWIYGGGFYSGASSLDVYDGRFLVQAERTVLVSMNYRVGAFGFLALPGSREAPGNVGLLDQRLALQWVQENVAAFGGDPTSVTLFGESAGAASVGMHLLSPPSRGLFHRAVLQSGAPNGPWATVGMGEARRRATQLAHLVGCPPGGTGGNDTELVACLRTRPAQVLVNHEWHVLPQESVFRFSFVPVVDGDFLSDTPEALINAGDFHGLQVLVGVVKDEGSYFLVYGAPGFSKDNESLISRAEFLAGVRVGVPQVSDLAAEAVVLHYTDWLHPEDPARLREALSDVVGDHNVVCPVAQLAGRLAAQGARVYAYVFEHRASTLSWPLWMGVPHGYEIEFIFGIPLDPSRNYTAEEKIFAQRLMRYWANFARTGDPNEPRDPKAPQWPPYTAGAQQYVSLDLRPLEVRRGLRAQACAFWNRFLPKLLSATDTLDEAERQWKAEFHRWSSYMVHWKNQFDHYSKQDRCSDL
T10 sequence (P11229 whole entry): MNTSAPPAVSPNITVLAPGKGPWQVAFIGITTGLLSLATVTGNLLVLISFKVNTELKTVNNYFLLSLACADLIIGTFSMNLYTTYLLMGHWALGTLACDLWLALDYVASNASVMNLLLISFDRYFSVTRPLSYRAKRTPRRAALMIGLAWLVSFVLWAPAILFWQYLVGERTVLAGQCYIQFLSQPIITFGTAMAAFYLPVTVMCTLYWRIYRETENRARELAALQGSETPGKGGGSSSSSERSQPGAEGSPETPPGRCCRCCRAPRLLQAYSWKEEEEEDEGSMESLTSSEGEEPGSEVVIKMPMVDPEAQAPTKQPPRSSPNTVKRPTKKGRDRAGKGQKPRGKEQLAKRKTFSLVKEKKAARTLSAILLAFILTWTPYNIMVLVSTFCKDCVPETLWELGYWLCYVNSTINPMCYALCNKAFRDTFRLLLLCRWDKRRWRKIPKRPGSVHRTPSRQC

COCCOCCO[C@@H]1[C@@H](OP(=O)(O)O)[C@H](OCCOCCOC)[C@@H](OP(=O)(O)O)[C@@H](OP(=O)(O)O)[C@H]1OP(=O)(O)O [(OEG2)2-IP4, 4,6-Di-O-(methoxy-diethyleneglycol)-myo-inositol-1,2,3,5-tetrakis(phosphate)]
inhibition at 10 µM [1]: 8%
lowering of serum calcium [2]: No significant lowering of serum calcium
inhibition at 10 µM [3]: 5%
% Inhibition [4]: -5%
inhibition at 10 µM [5]: 6%
% Inhibition [6]: 17%
inhibition at 10 µM [7]: -6%
% Inhibition [8]: -1%
inhibition at 10 µM [9]: 1%
% Inhibition [10]: -7%
inhibition at 10 µM [11]: 5%
inhibition at 10 µM [12]: -5%
inhibition at 10 µM [13]: 0%
inhibition at 10 µM [14]: 10%
inhibition at 10 µM [15]: -22%
% bone area compared with vehicle ([16]; 5, 15, 50 mg/kg/day): significantly higher
osteoblast and osteoclast morphology ([16]; rat, in vivo): not impacted
osteoid area ([16]; treatment groups): distinct increase in the osteoid area
mineralized trabecular bone area ([16]; various doses tested): unchanged mineralized trabecular bone area
plasma calcium (Figure 4k) ([17]; Acute, 30 min postdose): 2.45 and 2.725 and 1.925 and 1.85
plasma calcium (Figure 4k) ([17]; Acute, Predose): 2.8 and 2.45 and 2.3 and 1.975
plasma calcium (Figure 4k) ([17]; Sub-chronic, 30 min postdose): 2.175 and 2.2 and 2.05 and 1.925
plasma calcium (Figure 4k) ([17]; Sub-chronic, Predose): 2.275 and 2.3 and 2.55 and 1.925
% Inhibition [18]: -14%
inhibition at 10 µM [19]: -6%
inhibition at 10 µM [20]: -2%
AUC(0-inf) ([21]; Healthy): 101 µM·h
CL/F ([21]; Healthy): 11 ± 1 mL/min/kg
Cmax ([21]; Healthy): 49 ± 7 µM
half-life ([21]; Healthy (before induction of calcification)): 3.92 ± 0.267 h
AUC(0-t) ([21]; Healthy, read-out: AUC0-1440 (converted)): 101 µM·h
MRT last ([21]; Healthy, read-out: MRT0-1440 (converted)): 2.27 h
inhibition at 10 µM [22]: -7%

O=P(O)(O)O[C@H]1[C@H](OP(=O)(O)O)[C@@H](OP(=O)(O)O)[C@H](OP(=O)(O)O)[C@@H](OP(=O)(O)O)[C@H]1OP(=O)(O)O [IP6, myo-Inositol hexakisphosphate]
plasma half-life (t1/2) ([23]; healthy volunteers): 0.9 h
plasma half-life (t1/2) ([23]; hemodialyzed patients): 0.45 h
